The text below walks through data of patent US8722849B2, “Polypeptides” (Novo Nordisk A/S, priority 2011, dated 2014).

The target of data set [1] is T1, human amylin receptor (amylin 3(a) receptor: human calcitonin receptor + RAMP-3) (Homo sapiens, UniProt O60896+P30988).
T1 construct: expressed in transfected cells; host or cells: BHK570
T1 sequence (P30988 25-474): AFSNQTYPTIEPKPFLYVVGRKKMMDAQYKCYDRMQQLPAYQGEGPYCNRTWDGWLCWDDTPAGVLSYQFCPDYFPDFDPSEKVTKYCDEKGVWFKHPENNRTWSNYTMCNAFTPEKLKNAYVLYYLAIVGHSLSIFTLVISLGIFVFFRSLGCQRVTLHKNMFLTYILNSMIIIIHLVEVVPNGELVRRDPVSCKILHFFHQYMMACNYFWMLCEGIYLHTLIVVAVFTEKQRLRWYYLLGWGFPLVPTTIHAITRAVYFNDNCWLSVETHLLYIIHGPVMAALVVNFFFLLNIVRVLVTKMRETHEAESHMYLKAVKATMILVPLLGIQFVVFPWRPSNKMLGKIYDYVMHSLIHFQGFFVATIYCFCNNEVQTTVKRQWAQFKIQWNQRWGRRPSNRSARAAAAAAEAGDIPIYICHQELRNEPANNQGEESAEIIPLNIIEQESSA
T1 sequence (O60896 24-148 partner): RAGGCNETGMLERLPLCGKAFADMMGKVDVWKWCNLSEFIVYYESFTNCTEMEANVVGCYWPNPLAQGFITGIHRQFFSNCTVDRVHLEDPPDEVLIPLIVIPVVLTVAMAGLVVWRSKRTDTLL
Briefly: Assay (II)a functional CRE-luciferase assay, human amylin receptor. The class given is cell-based. The note with it: Table 2; BHK amylin 3(a)-receptor/CRE-luc cells.

Data set [2] deals with T2, human calcitonin receptor (Homo sapiens, UniProt P30988).
T2 construct: expressed in transfected cells; host or cells: BHK570
T2 sequence (P30988 25-474): T1 sequence (P30988 25-474)
Briefly: Assay (II)a functional CRE-luciferase assay, human calcitonin receptor. The class given is cell-based. The note with it: Table 7; human calcitonin (CTa) receptor.

A short description of data set [3]: Assay (III) ThT fibrillation assay for physical stability. The class given is physicochemical. The gist of the method: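 Freshly prepared formulations, pH-adjusted, with 1 μM ThT; four or eight replicates incubated at 37 °C under 960 rpm orbital shaking. Fluorescence (ex 444/em 485 nm) read every 20 min; […]. Peptide concentration measured by RP-HPLC before and after the run.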

A short description of data set [4]: Assay (IV) determination of solubility. The class given is physicochemical. The gist of the method: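 Polypeptide in water (~500 nmol/ml stock) was mixed 1:1 with 100 mM buffers from pH 3.0 to 8.0 (glycylglycine pH 3.0–5.0; bistrispropane pH 6.0–8.0). After 18 hours at room temperature, samples were centrifuged and the polypeptide remaining in solution was quantified by HPLC.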

Setting [5] is: bistrispropane buffer, pH 6, pH 6.0, read-out: Solubility pH 6.0.
[6] abbreviates: bistrispropane buffer, pH 6.5, pH 6.5, read-out: Solubility pH 6.5.
Where [7] appears, read: bistrispropane buffer, pH 7, pH 7.0, read-out: Solubility pH 7.0.
Setting [8] is: bistrispropane buffer, pH 7.5, pH 7.5, read-out: Solubility pH 7.5.
The mark [9] stands for this setting: bistrispropane buffer, pH 8, pH 8.0, read-out: Solubility pH 8.0.
Setting [10] is: glycylglycine buffer, pH 3, pH 3.0, read-out: Solubility pH 3.0.
[11] abbreviates: glycylglycine buffer, pH 4, pH 4.0, 18 hours at room temperature, Table 2, read-out: Solubility pH 4.0.
Setting [12] is: glycylglycine buffer, pH 4, pH 4.0, read-out: Solubility pH 4.0.
[13] abbreviates: glycylglycine buffer, pH 5, pH 5.0, read-out: Solubility pH 5.0.

Converted amounts (≈) assume the structure as drawn. Where two headings read alike, the source gives them in different places. Starred links: 1 amine or outer side, 2 acyl side, 3 side chain; linkers in the order of their positions; H or OH if unused. Positions of bridges follow the written chain, without caps; N, C: chain ends. Residues, ends and D or L forms follow the SMILES beside them. *: point of attachment. C20 diacid = O=C(O)CCCCCCCCCCCCCCCCCCC(=O)*; γGlu = O=C(O)[C@H](CCC(=O)[*:2])N[*:1]

What is called EC50 is the concentration needed to bring the measured effect to its halfway point. In general, solubility refers to the dissolved amount per volume that the medium holds. Take `CC[C@H](C)[C@H](NC(=O)[C@@H]1CCCN1C(=O)CNC(=O)[C@H](Cc1ccccc1)NC(=O)[C@H](CC(N)=O)NC(=O)[C@H](CC(N)=O)NC(=O)[C@H](CO)NC(=O)[C@H](CO)NC(=O)[C@H](Cc1c[nH]cn1)NC(=O)[C@H](CCCNC(=N)N)NC(=O)[C@H](CC(C)C)NC(=O)[C@H](Cc1ccccc1)NC(=O)[C@H](CCC(=O)O)NC(=O)[C@H](C)NC(=O)[C@H](CC(C)C)NC(=O)[C@H](CCCNC(=N)N)NC(=O)[C@H](CCC(N)=O)NC(=O)[C@@H](NC(=O)[C@H](C)NC(=O)[C@@H]1CSSC[C@H](NC(=O)[C@H](CCCCN)NC(=O)[C@H](Cc2c[nH]cn2)NC(=O)CC[C@H](NC(=O)CCCCCCCCCCCCCCCCCCC(=O)O)C(=O)O)C(=O)N[C@@H](CC(N)=O)C(=O)N[C@@H]([C@@H](C)O)C(=O)N[C@@H](C)C(=O)N[C@@H]([C@@H](C)O)C(=O)N1)[C@@H](C)O)C(=O)N[C@@H](CC(C)C)C(=O)N1CCC[C@H]1C(=O)N1CCC[C@H]1C(=O)N[C@H](C(=O)N[C@@H](CC(N)=O)C(=O)N[C@H](C(=O)NCC(=O)N[C@@H](CO)C(=O)N[C@@H](Cc1c[nH]cn1)C(=O)N[C@H](C(=O)N[C@@H](Cc1ccc(O)cc1)C(N)=O)[C@@H](C)O)C(C)C)[C@@H](C)O` [Example 68, N-alpha-[(S)-4-Carboxy-4-(19-carboxynonadecanoylamino)butyryl]-His-[Glu14,Arg17,His35]-pramlintide] ({C20 diacid-γGlu}-HKCNTATCATQRLAEFLRHSSNNFGPILPPTNVGSHTY-NH2; disulfide 3-8 (inferred); C-terminus assumed): the EC50 in data set [1] was 0.0935 nM; in data set [2], 0.43 nM. For the same molecule, the “ThT pH 4.0 lag time” value in data set [3] (ThT fibrillation assay) is given as more than 45 h. Besides, the “ThT pH 4.0 lag time (h)” value in data set [3] (ThT fibrillation assay) is on record as more than 45 h. Further, the solubility at 18 h in data set [4] (setting [5]) was more than 200 µM; in data set [4] (setting [6]), 170 µM (≈ 788 µg/mL); in data set [4] (setting [7]), 17 µM (≈ 78.8 µg/mL); in data set [4] (setting [8]), 6 µM (≈ 27.8 µg/mL); in data set [4] (setting [9]) it was 7 µM (≈ 32.4 µg/mL); in data set [4] (setting [10]), more than 200 µM. Moreover, the solubility at 18 h in data set [4] (setting [11]), in data set [4] (setting [12]) and in data set [4] (setting [13]) was more than 200 µM in each case.
In the case of “{C20 diacid-γGlu}-SSGSSGHCNTATCATQRLAEFLHHSSNNFGPILPPTNVGSNTY-NH2 (disulfide 8-13 (inferred); C-terminus assumed) [Example 44, N-alpha-[(S)-4-Carboxy-4-(19-carboxynonadecanoylamino)butyryl]-Ser-Ser-Gly-Ser-Ser-Gly-[His1,Glu14,His17]-pramlintide]”, the results for the EC50 in data set [1] and in data set [2] were 0.305 nM and 0.669 nM, respectively. The “ThT pH 4.0 lag time (h)” value in data set [3] (ThT fibrillation assay) turned out to be 10.6 h. In addition, the solubility at 18 h in data set [4] (setting [5]) was 21 µM; in data set [4] (setting [6]), 20 µM; in data set [4] (setting [7]), 52 µM; in data set [4] (setting [8]), more than 200 µM; in data set [4] (setting [9]), more than 200 µM; in data set [4] (setting [10]), more than 200 µM. Moreover, the solubility at 18 h in data set [4] (setting [11]), in data set [4] (setting [12]) and in data set [4] (setting [13]) was more than 200 µM in each case.
Consider `CC[C@H](C)[C@H](NC(=O)[C@@H]1CCCN1C(=O)CNC(=O)[C@H](Cc1ccccc1)NC(=O)[C@H](CC(N)=O)NC(=O)[C@H](CC(N)=O)NC(=O)[C@H](CO)NC(=O)[C@H](CO)NC(=O)[C@H](Cc1c[nH]cn1)NC(=O)[C@H](Cc1c[nH]cn1)NC(=O)[C@H](CC(C)C)NC(=O)[C@H](Cc1ccccc1)NC(=O)[C@H](CCC(=O)O)NC(=O)[C@H](C)NC(=O)[C@H](CC(C)C)NC(=O)[C@H](CCCNC(=N)N)NC(=O)[C@H](CCC(N)=O)NC(=O)[C@@H](NC(=O)[C@H](C)NC(=O)[C@@H]1CSSC[C@H](NC(=O)CNC(=O)CC[C@H](NC(=O)CCCCCCCCCCCCCCCCCCC(=O)O)C(=O)O)C(=O)N[C@@H](CC(N)=O)C(=O)N[C@@H]([C@@H](C)O)C(=O)N[C@@H](C)C(=O)N[C@@H]([C@@H](C)O)C(=O)N1)[C@@H](C)O)C(=O)N[C@@H](CC(C)C)C(=O)N1CCC[C@H]1C(=O)N1CCC[C@H]1C(=O)N[C@H](C(=O)N[C@@H](CC(N)=O)C(=O)N[C@H](C(=O)NCC(=O)N[C@@H](CO)C(=O)N[C@@H](Cc1c[nH]cn1)C(=O)N[C@H](C(=O)N[C@@H](Cc1ccc(O)cc1)C(N)=O)[C@@H](C)O)C(C)C)[C@@H](C)O` [Example 105, N-alpha-[(S)-4-Carboxy-4-(19-carboxynonadecanoylamino)butyryl]-[Gly1,Glu14,His17,His35]-pramlintide] ({C20 diacid-γGlu}-GCNTATCATQRLAEFLHHSSNNFGPILPPTNVGSHTY-NH2; disulfide 2-7 (inferred); C-terminus assumed), for which the values for the EC50 in data set [1] and in data set [2] were 0.208 nM and 0.16 nM, respectively. Moreover, the “ThT pH 4.0 lag time” value in data set [3] (Table 8) and in data set [3] (ThT fibrillation assay) was 26 h in each case. Also, the “ThT pH 4.0 lag time (h)” value in data set [3] (ThT fibrillation assay) came to 26 h. Further, the solubility at 18 h in data set [4] (setting [5]) is more than 200 µM; in data set [4] (setting [6]) it was 152 µM (≈ 670 µg/mL); in data set [4] (bistrispropane buffer, pH 7, pH 7.0, 18 hours at room temperature, Table 3, read-out: Solubility pH 7.0) it was more than 200 µM; in data set [4] (bistrispropane buffer, pH 7, pH 7.0, Table 8, read-out: Solubility pH 7.0), more than 200 µM; in data set [4] (setting [7]), more than 200 µM; in data set [4] (setting [8]), more than 200 µM. Moreover, the solubility at 18 h in data set [4] (setting [9]), in data set [4] (setting [10]), in data set [4] (setting [11]), in data set [4] (setting [12]) and in data set [4] (setting [13]) was more than 200 µM throughout.
